# ChEMBL document CHEMBL2439951, “Discovery of N-(benzo[1,2,3]triazol-1-yl)-N-(benzyl)acetamido)phenyl) carboxamides as severe acute respiratory syndrome coronavirus (SARS-CoV) 3CLpro inhibitors: identification of ML300 and noncovalent nanomolar inhibitors with an induced-fit binding” (Bioorg Med Chem Lett, 2013)
# What was measured:
# [1] = molecular target: Replicase polyprotein 1a (Severe acute respiratory syndrome-related coronavirus) (UniProt P0C6U8); experiment: Inhibition of SARS coronavirus 3CLpro at 100 uM
# [2] = molecular target: Replicase polyprotein 1a (Severe acute respiratory syndrome-related coronavirus, UniProt P0C6U8); experiment: Inhibition of SARS coronavirus 3CLpro
# [3] = Inhibition of SARS coronavirus PLpro; set-up: species or system Severe acute respiratory syndrome-related coronavirus
# [4] = molecular target: Cytochrome P450 2D6 (Homo sapiens, UniProt P10635); experiment: Inhibition of CYP2D6 (unknown origin); format: ADME
# Chain of Cytochrome P450 2D6 (P10635 whole entry): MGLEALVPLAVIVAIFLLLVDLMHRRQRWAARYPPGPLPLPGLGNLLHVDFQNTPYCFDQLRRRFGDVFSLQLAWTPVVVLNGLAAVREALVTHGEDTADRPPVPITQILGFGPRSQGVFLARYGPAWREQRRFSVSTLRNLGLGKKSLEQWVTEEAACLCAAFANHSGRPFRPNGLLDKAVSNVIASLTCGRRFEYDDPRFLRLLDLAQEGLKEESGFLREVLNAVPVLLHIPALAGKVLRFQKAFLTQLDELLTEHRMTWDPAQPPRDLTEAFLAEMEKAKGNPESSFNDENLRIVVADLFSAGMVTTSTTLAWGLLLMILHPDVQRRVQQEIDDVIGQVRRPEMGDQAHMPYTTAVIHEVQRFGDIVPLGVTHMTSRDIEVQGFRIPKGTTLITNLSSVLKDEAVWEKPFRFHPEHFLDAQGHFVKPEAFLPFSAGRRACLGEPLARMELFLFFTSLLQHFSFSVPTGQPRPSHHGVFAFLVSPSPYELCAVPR
# [5] = molecular target: Cytochrome P450 2C9 (Homo sapiens, UniProt P11712); experiment: Inhibition of CYP2C9 (unknown origin); format: ADME
# Chain of Cytochrome P450 2C9 (P11712 whole entry): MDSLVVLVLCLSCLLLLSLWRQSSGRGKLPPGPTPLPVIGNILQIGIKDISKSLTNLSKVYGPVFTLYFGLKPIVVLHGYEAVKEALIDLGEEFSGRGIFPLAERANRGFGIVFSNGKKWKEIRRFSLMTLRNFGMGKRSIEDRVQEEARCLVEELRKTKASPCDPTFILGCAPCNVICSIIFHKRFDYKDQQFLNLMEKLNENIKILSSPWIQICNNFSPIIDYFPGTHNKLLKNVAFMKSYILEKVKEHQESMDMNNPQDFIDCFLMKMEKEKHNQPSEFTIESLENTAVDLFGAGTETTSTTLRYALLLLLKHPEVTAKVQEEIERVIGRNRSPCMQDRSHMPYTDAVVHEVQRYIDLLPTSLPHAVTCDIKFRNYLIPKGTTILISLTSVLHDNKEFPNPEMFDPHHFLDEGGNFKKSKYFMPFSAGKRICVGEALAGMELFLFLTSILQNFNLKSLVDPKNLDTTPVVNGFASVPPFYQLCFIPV
# [6] = molecular target: T1, Cytochrome P450 1A2 (Homo sapiens, UniProt P05177); experiment: Inhibition of CYP1A2 (unknown origin); format: ADME
# T1 sequence (P05177 whole entry): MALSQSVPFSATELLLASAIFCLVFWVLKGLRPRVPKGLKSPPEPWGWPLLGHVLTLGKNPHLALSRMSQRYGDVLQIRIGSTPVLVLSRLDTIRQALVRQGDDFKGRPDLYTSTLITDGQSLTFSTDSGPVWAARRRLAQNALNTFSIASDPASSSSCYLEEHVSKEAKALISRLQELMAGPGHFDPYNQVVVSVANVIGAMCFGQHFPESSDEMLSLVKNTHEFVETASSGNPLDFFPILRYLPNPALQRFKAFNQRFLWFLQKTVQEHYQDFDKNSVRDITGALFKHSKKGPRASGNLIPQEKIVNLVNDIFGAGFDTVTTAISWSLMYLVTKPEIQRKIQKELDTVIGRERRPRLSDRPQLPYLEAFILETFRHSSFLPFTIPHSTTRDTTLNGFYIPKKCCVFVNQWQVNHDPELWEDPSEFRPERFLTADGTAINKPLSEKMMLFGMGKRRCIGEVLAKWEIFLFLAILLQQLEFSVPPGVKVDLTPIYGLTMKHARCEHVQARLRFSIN
smiles,measurement,setting,value
O=C(Nc1ccc(N(Cc2ccsc2)C(=O)Cn2nnc3ccccc32)cc1)c1ccccc1,inhibition,[1],18%
CCC(C)(C)NC(=O)[C@@H](c1ccn(C)c1)N(C(=O)Cn1nnc2ccccc21)c1ccc(NC(C)=O)cc1,IC50,[2]; read-out: IC50,6200 nM
same,IC50,[3],> 60000 nM
COc1ncccc1-c1ccc(N(Cc2ccsc2)C(=O)Cn2nnc3ccccc32)cc1,IC50,[2]; read-out: IC50,700 nM
O=C(Nc1ccc(N(Cc2ccsc2)C(=O)Cn2nnc3ccccc32)cc1)C1CC1,INH,[4],8.4 µM
same,INH,[5],7.2 µM
same,INH,[6],7.7 µM
CC(C)(C)NC(=O)[C@@H](c1cccnc1)N(C(=O)c1ccco1)c1ccc(C(C)(C)C)cc1,INH,[4],> 30 µM
same,INH,[5],9.1 µM
same,INH,[6],> 30 µM
O=C(Cn1nnc2ccccc21)N(Cc1ccsc1)c1ccc(-c2ccncc2)cc1,IC50,[2]; read-out: IC50,2000 nM
CC(C)COC(=O)Nc1ccc(N(C(=O)Cn2nnc3ccccc32)C(C(=O)NC(C)(C)C)c2ccsc2)cc1 (configuration not stated),IC50,[2],Not Active
